Source: US20050142626A1, “Diagnostic methods for asthma” (priority 1999, published 2005)

Assays:
[1] = Chemical stability of L-tyrosine oxidation products (Peaks I and II) of the EPO-H2O2-Br- system; conditions: to acid, peroxide, reductants and nucleophilic compounds; prolonged incubation at 37° C. with H2O2
[2] = tested on: eosinophil peroxidase-H2O2—Br− system; experiment: 3-Bromotyrosine formation in BSA incubated with activated phagocytes (eosinophils); format: cell-based; conditions: BSA with phorbol ester activated cells, plasma levels of bromide
Experimental: Reactions were initiated by addition of oxidant (H2O2, HOBr, N-bromo or N,N-dibromo amine) and performed in sodium phosphate buffer (pH 7.0) at 37° C. for 60 min. Proteins oxidized in vitro were prepared for analysis by first precipitating and desalting them in a single-phase extraction mixture comprised of H2O:methanol:H2O-saturated diethyl ether (1:3:7, v:v:v) as described in Hazen, S. L., Hsu, F. F., Gaut, J. P., Crowler, J. R. and Heinecke, J. W. “Modification of Proteins and Lipids by Myeloperoxidase-Derived Oxidants” In: Methods of Enzymology, Edited by Lester Packer, Vol. 300, pp. 88-106. Academic Press, Inc., San Diego. 1999, followed by acid hydrolysis in methane sulfonic acid. […]
L-Tyrosine, 3-bromotyrosine and 3,5-dibromotyrosine generated by phagocytes and human tissues were quantified by stable isotope dilution GC/MS in the negative-ion chemical ionization mode. n-Propyl, per heptafluorobutyryl (HFB) derivatives of amino acids were prepared by standard methods and analyzed on a Perkin Elmer TurboMass mass spectrometer equipped with chemical ionization probe. […] 3-Bromotyrosine was monitored as its n-propyl per HFB derivative using two structurally informative fragment ions, m/z 573 (M-HF)^− and m/z 445 (M-CF3CF2CHO)^− and their corresponding isotopically labeled [^13C6] internal standard ions at m/z 579 and 451, respectively. […]

eosinophil peroxidase = experiment: Ring-bromination of L-tyrosine by isolated EPO at physiological levels of halides; format: biochemical; conditions: molar excess in reaction mixtures
Experimental: Reactions were initiated by addition of oxidant (H2O2, HOBr, N-bromo or N,N-dibromo amine) and performed in sodium phosphate buffer (pH 7.0) at 37° C. for 60 min. Proteins oxidized in vitro were prepared for analysis by first precipitating and desalting them in a single-phase extraction mixture comprised of H2O:methanol:H2O-saturated diethyl ether (1:3:7, v:v:v) as described in Hazen, S. L., Hsu, F. F., Gaut, J. P., Crowler, J. R. and Heinecke, J. W. “Modification of Proteins and Lipids by Myeloperoxidase-Derived Oxidants” In: Methods of Enzymology, Edited by Lester Packer, Vol. 300, pp. 88-106. Academic Press, Inc., San Diego. 1999, followed by acid hydrolysis in methane sulfonic acid.
Quantitative determination of 3-bromotyrosine and 3,5-dibromotyrosine production from free L-tyrosine was performed utilizing reverse-phase HPLC with a C18 column (Beckman Ultrasphere, 5 μm resin, 4.6×250 mm) equilibrated with solvent A (0.1% trifluoroacetic acid, pH 2.5). […] 3-Bromotyrosine and 3,5-dibromotyrosine were monitored on a diode array detector and quantified at 280 nm employing a standard curve constructed with authentic synthetic standards.
The ability of isolated EPO and MPO to form 3-bromotyrosine and 3,5-dibromotyrosine in the presence of physiological levels of halides was evaluated. […]

Compound | effect on 3-bromotyrosine production [2] | also measured
N[C@@H](Cc1cc(Br)c(O)c(Br)c1)C(=O)O (single isomer, unassigned) [3,5-dibromotyrosine] | – | chemical stability of the product [1]: stable
[N-]=[N+]=[N-].[Na+] [NaN3] | inhibited | –
NCCS(=O)(=O)O [taurine] | – | effect on ring-bromination by EPO (eosinophil peroxidase): augmented
catalase | inhibited | –
